Laboratory results taken from the supplement of paper PMC4862054.
Several values for one entry are separate records, joined by “and”; a condition that tells them apart may be missing. Identical values can stand only once.

How the values were obtained:
Settings in all cases: incubation time: 72 h
[1] = tested on: CAL-51; assay: normalised viability (% of control), CellTiter-Blue; higher = more viable cells (about 100 = DMSO control)
How it was run: (§1)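 Vehicle (100) and a positive kill control (0) anchored the normalisation of each plate, and Z'-factor was used for quality control. Breast cancer cell lines in 20 µl suspension were incubated 72 h over compound in 5 µl medium in 384-well plates, followed by CellTiter-Blue at 560/590 nm. The value is normalised viability at a single listed concentration of the series.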

[2] = tested on: MDA-MB-231; assay: as above
How it was run: as §1

[3] = tested on: CAL-120; assay: as above
How it was run: as §1

[4] = tested on: HDQ-P1; assay: as above
How it was run: as §1

[5] = tested on: HCC1937; assay: as above
How it was run: as §1

[6] = tested on: CAL-148; assay: as above
How it was run: as §1

[7] = tested on: MFM-223; assay: as above
How it was run: as §1

[8] = tested on: HCC1599; assay: as above
How it was run: as §1

[9] = tested on: HCC1143; assay: as above
How it was run: as §1

[10] = tested on: BT-549; assay: as above
How it was run: as §1

[11] = tested on: BT-474; assay: as above
How it was run: as §1

[12] = tested on: CAL-85-1; assay: as above
How it was run: as §1

[13] = tested on: MDA-MB-468; assay: as above
How it was run: as §1

[14] = tested on: DU-4475; assay: as above
How it was run: as §1

[15] = tested on: MDA-MB-436; assay: as above
How it was run: as §1

[16] = tested on: MDA-MB-453; assay: as above
How it was run: as §1

[17] = tested on: SK-BR-3; assay: as above
How it was run: as §1

[18] = tested on: CAL-51; assay: normalised viability (% of control), CellTiter-Blue; higher = more viable cells (100 = DMSO, 0 = benzethonium chloride kill control)
How it was run: as §1

[19] = tested on: MDA-MB-231; assay: as above
How it was run: as §1

[20] = tested on: CAL-120; assay: as above
How it was run: as §1

[21] = tested on: HDQ-P1; assay: as above
How it was run: as §1

[22] = tested on: MFM-223; assay: as above
How it was run: as §1

[23] = tested on: HCC1143; assay: as above
How it was run: as §1

[24] = tested on: Hs578T; assay: as above
How it was run: as §1

[25] = tested on: DU-4475; assay: as above
How it was run: as §1

[26] = tested on: SK-BR-3; assay: as above
How it was run: as §1

O=S(=O)(c1cccc2cnccc12)N1CCCNCC1 [Fasudil]
Settings | normalised viability [%]
[1], 3 nM | 118
[1], 30 nM | 108
[1], 100 nM | 116
[2], 10 nM | 98.8
[2], 1000 nM | 110
[2], 10000 nM | 127
[3], 10 nM | 87.9
[3], 1000 nM | 84.4
[3], 10000 nM | 92
[4], 3 nM | 111
[4], 30 nM | 99
[4], 100 nM | 117
[5], 10 nM | 122
[5], 1000 nM | 105
[5], 10000 nM | 90.6
[6], 3 nM | 81
[6], 30 nM | 90.1
[6], 100 nM | 90.2
[7], 10 nM | 102
[7], 1000 nM | 89
[7], 10000 nM | 77.7
[8], 10 nM | 99.9
[8], 1000 nM | 102
[8], 10000 nM | 117
[9], 10 nM | 85.1
[9], 1000 nM | 96.2
[9], 10000 nM | 80.2
[10], 10 nM | 93.3
[10], 1000 nM | 95.2
[10], 10000 nM | 107
[11], 10 nM | 112
[11], 1000 nM | 112
[11], 10000 nM | 126
[12], 3 nM | 96.6
[12], 30 nM | 90.4
[12], 100 nM | 93.3
[13], 10 nM | 106
[13], 1000 nM | 110
[13], 10000 nM | 105
[14], 3 nM | 100
[14], 30 nM | 109
[14], 100 nM | 101
[15], 10 nM | 83.5
[15], 1000 nM | 108
[15], 10000 nM | 107
[16], 3 nM | 112
[16], 30 nM | 116
[16], 100 nM | 109
[17], 10 nM | 94.7
[17], 1000 nM | 95.7
[17], 10000 nM | 109
[18], 1 nM | 111
[19], 1 nM | 106
[20], 1 nM | 83.9
[21], 1 nM | 99.9
[22], 1 nM | 105
[23], 1 nM | 92.8
[24], 1 nM | 116
[25], 1 nM | 108
[26], 1 nM | 93.8

CS(=O)(=O)N1CCN(Cc2cc3nc(-c4cccc5[nH]ncc45)nc(N4CCOCC4)c3s2)CC1 [GDC-0941]
Settings | normalised viability [%]
[1], 3 nM | 117
[1], 30 nM | 106
[1], 100 nM | 89.4
[2], 10 nM | 90.8
[2], 1000 nM | 63.4
[2], 10000 nM | 35.2
[3], 10 nM | 89.6
[3], 1000 nM | 53.7
[3], 10000 nM | 20.8
[4], 3 nM | 93.6
[4], 30 nM | 93.8
[4], 100 nM | 69.3
[5], 10 nM | 114
[5], 1000 nM | 60.8
[5], 10000 nM | 25.5
[6], 3 nM | 82.4
[6], 30 nM | 85.8
[6], 100 nM | 83.2
[7], 10 nM | 95.7
[7], 1000 nM | 43.5
[7], 10000 nM | 13.1
[8], 10 nM | 96.8
[8], 1000 nM | 55
[8], 10000 nM | 28
[9], 10 nM | 73.2
[9], 1000 nM | 52.1
[9], 10000 nM | 21.2
[10], 10 nM | 85.6
[10], 1000 nM | 60.9
[10], 10000 nM | 14.1
[11], 10 nM | 109
[11], 1000 nM | 41.3
[11], 10000 nM | 11
[12], 30 nM | 77.7
[12], 100 nM | 83.5
[13], 10 nM | 108
[13], 1000 nM | 62.8
[13], 10000 nM | 17
[14], 3 nM | 107
[14], 30 nM | 98.8
[14], 100 nM | 95.5
[15], 10 nM | 97.7
[15], 1000 nM | 68.1
[15], 10000 nM | 22.9
[16], 3 nM | 109
[16], 30 nM | 85.1
[16], 100 nM | 76.2
[17], 10 nM | 92.3
[17], 1000 nM | 24.1
[17], 10000 nM | 8.8
[18], 1 nM | 114
[19], 1 nM | 92.9
[20], 1 nM | 89.7
[21], 1 nM | 109
[22], 1 nM | 89.7
[23], 1 nM | 84.1
[24], 1 nM | 112
[25], 1 nM | 106
[26], 1 nM | 88.3

CNC(=O)c1cc(Oc2ccc(NC(=O)Nc3ccc(Cl)c(C(F)(F)F)c3)cc2)ccn1 [Sorafenib]
Settings | normalised viability
[1], 0.3 nM | 112% and 107%
[1], 3 nM | 108% and 99.3%
[1], 10 nM | 98.3% and 96.8%
[2], 1 nM | 103% and 90.2%
[2], 100 nM | 88.7% and 96.2%
[2], 1000 nM | 84.8% and 63.9%
[3], 1 nM | 106% and 91.3%
[3], 100 nM | 101% and 90.5%
[3], 1000 nM | 96.5% and 89%
[4], 0.3 nM | 107% and 97.1%
[4], 3 nM | 98.5% and 88.8%
[5], 100 nM | 106% and 100%
[5], 1000 nM | 82.3% and 82.8%
[6], 0.3 nM | 101% and 88%
[6], 3 nM | 99.3% and 91.5%
[6], 10 nM | 102% and 87.5%
[7], 1 nM | 94.9% and 108%
[7], 100 nM | 96.7% and 103%
[7], 1000 nM | 48.2% and 67.9%
[8], 100 nM | 115% and 126%
[8], 1000 nM | 100% and 112%
[9], 1 nM | 99% and 84.3%
[9], 100 nM | 105% and 85.9%
[9], 1000 nM | 96.1% and 91.6%
[10], 1 nM | 83.7% and 97.1%
[10], 100 nM | 99.5% and 82.8%
[10], 1000 nM | 94.5% and 80.4%
[11], 1000 nM | 130% and 106%
[12], 0.3 nM | 98.3% and 99.7%
[12], 3 nM | 104% and 98.8%
[12], 10 nM | 105% and 108%
[13], 1 nM | 115% and 93.2%
[13], 1000 nM | 102% and 112%
[14], 0.3 nM | 94.3% and 109%
[14], 3 nM | 101% and 95.7%
[15], 1 nM | 92.8% and 87%
[15], 100 nM | 103% and 80.7%
[15], 1000 nM | 91% and 88.2%
[16], 0.3 nM | 122% and 105%
[16], 3 nM | 97.2% and 99.1%
[16], 10 nM | 96.8% and 102%
[17], 1 nM | 112% and 89.3%
[17], 100 nM | 107% and 102%
[17], 1000 nM | 110% and 108%
[18], 0.1 nM | 111% and 95.4%
[19], 0.1 nM | 92.8% and 93.4%
[20], 0.1 nM | 97.8% and 95.4%
[22], 0.1 nM | 102% and 105%
[23], 0.1 nM | 109% and 96%
[24], 0.1 nM | 113% and 99%
[25], 0.1 nM | 96.9% and 115%
[26], 0.1 nM | 103% and 90.7%

CCN(CC)CCNC(=O)c1c(C)[nH]c(/C=C2\C(=O)Nc3ccc(F)cc32)c1C [Sunitinib]
Settings | normalised viability
[1], 0.3 nM | 116% and 93.3%
[1], 10 nM | 107% and 91.1%
[2], 1 nM | 90.4% and 86.8%
[2], 100 nM | 89% and 90.3%
[2], 1000 nM | 114% and 112%
[3], 1000 nM | 88.6% and 104%
[4], 0.3 nM | 101% and 95.9%
[4], 3 nM | 85.3% and 98.3%
[5], 1 nM | 93.7% and 84.2%
[5], 100 nM | 82.3% and 102%
[5], 1000 nM | 84.5% and 93.2%
[6], 0.3 nM | 92.3% and 103%
[6], 3 nM | 90.1% and 97.4%
[6], 10 nM | 89.6% and 111%
[7], 1 nM | 101% and 105%
[7], 100 nM | 91.4% and 96.6%
[7], 1000 nM | 62.7% and 68.1%
[8], 1 nM | 113% and 97.3%
[8], 100 nM | 85.4% and 102%
[8], 1000 nM | 101% and 90.8%
[9], 100 nM | 84.3% and 106%
[10], 1 nM | 90.8% and 103%
[10], 100 nM | 92.6% and 88.2%
[10], 1000 nM | 89.9% and 111%
[11], 1 nM | 110% and 97.1%
[11], 100 nM | 115% and 92.5%
[12], 0.3 nM | 92% and 101%
[12], 3 nM | 90.5% and 104%
[12], 10 nM | 98.1% and 98.9%
[13], 1 nM | 104% and 89.3%
[13], 100 nM | 104% and 95.4%
[13], 1000 nM | 100%
[14], 0.3 nM | 99.7% and 88.2%
[14], 3 nM | 92.5% and 88.1%
[14], 10 nM | 108% and 95.7%
[15], 1 nM | 94.5% and 114%
[15], 100 nM | 85.8% and 110%
[15], 1000 nM | 98.5% and 108%
[16], 3 nM | 90.5% and 94.7%
[16], 10 nM | 95.2% and 82%
[17], 1 nM | 94.8% and 101%
[17], 100 nM | 98.3% and 96.8%
[17], 1000 nM | 90.2% and 90.4%
[18], 0.1 nM | 111% and 96%
[19], 0.1 nM | 82.2% and 85.6%
[21], 0.1 nM | 100% and 93.2%
[22], 0.1 nM | 99.6% and 109%
[24], 0.1 nM | 104% and 115%
[25], 0.1 nM | 101% and 89.2%
[26], 0.1 nM | 94.2% and 93.7%
